According to ChEMBL document CHEMBL3045105, “Synthesis and hypoglycemic activity evaluation of rhein amide derivatives” (Med Chem Res, 2013):

Legend:
HepG2 [1] = experiment: Hypoglycemic activity in Homo sapiens (human) HepG2 cells assessed as glucose consumption at 10 mg/l after 24 hr by glucose enzymatic assay (reference value: 1.972 +/-0.071 mmol/l); assay type: functional
HepG2 [2] = experiment: Cytotoxicity against Homo sapiens (human) HepG2 cells assessed as absorbance at 490 nm by MTT assay (reference value: 0.574 +/-0.019 no unit); assay type: cell-based; details: hepg2, 10 mg/L
HepG2 [3] = experiment: Ratio of glucose consumption to cytotoxic OD490 absorbance for Homo sapiens (human) HepG2 cells (reference value: 3.438 +/-0.139 no unit)
HepG2 [4] = experiment: Hypoglycemic activity in Homo sapiens (human) HepG2 cells assessed as glucose consumption at 1 mg/l after 24 hr by glucose enzymatic assay (reference value: 1.972 +/-0.071 mmol/l); assay type: functional

Structure (SMILES)	Activity (HepG2 [1]) [mmol/L]	OD (HepG2 [2])	Ratio (HepG2 [3])	Activity (HepG2 [4]) [mmol/L]
CC(C)(C)[Si](C)(C)Oc1cccc2c1C(=O)c1c(O[Si](C)(C)C(C)(C)C)cc(C(=O)OCc3ccc([N+](=O)[O-])cc3)cc1C2=O	2.529	0.563	4.499	2.576
CN(C)C(=O)c1cc(O)c2c(c1)C(=O)c1cccc(O)c1C2=O	2.485	0.56	4.449	2.444
CC(=O)Oc1cccc2c1C(=O)c1c(OC(C)=O)cc(C(=O)OCc3ccc([N+](=O)[O-])cc3)cc1C2=O	2.268	0.573	3.958	2.198
CC(=O)Oc1cccc2c1C(=O)c1c(OC(C)=O)cc(C(=O)NC3CCCC3)cc1C2=O	2.256	0.577	3.916	2.151
O=C1c2cccc(O)c2C(=O)c2c(O)cc(C(=O)N3CCCC3)cc21	2.315	0.565	4.116	2.379
CN(C)C(=N)NC(=N)N [METFORMIN]	2.25	0.574	3.923	
CC(=O)Oc1cccc2c1C(=O)c1c(OC(C)=O)cc(C(=O)N3CCCC3)cc1C2=O	2.541	0.591	4.304	2.476
CC(C)(C)[Si](C)(C)Oc1cccc2c1C(=O)c1c(O[Si](C)(C)C(C)(C)C)cc(C(=O)NC3CCCC3)cc1C2=O	2.578	0.565	4.563	2.369
